Patent publication US20040248223A1, “Reduction of interfering peroxidase activity in peroxidase based detection methods” (IDEXX Laboratories, Inc., priority 2003, published 2004)
Where two headings read alike, the source gives them in different places.

Experiments:
HRP [1] = molecular target: T1, HRP (Armoracia rusticana, UniProt P00433); conditions: for effect on assay sensitivity: both substrates (TMBlue, TMBM); for 50 μM azide (mA) / 100 μM azide (mA) / 500 μM Azide (mA): serum
Method: (§1) SLF5 glass fiber discs, 6.4 mm diameter (Whatman, Inc.) were sensitized with 13 μL of 1 mg/mL rabbit anti-heartworm antibody containing 0.7% sodium bicarbonate, 2% sucrose, and 30 μg/mL FDC Blue 1 dye. Heartworm antibody can be produced from heartworm antigen prepared by disrupting a parasitic worm in an aqueous buffer solution, centrifuging to remove insoluble and particulate components, adding of trichloroacetic acid to a concentration of 15% w/v, centrifuging to remove insoluble components, dialyzing against an aqueous buffer solution and lyophilizing. This antigen preparation is used to produce antibodies in mammals using standard methods (see, e.g., Harlow, E. and D. Lane, 1988, “Antibodies: A Laboratory manual”, Cold Spring Harbor Laboratory, Cod Spring Harbor, N.Y., USA, ISBN 0-87969-314-2 pp 92-286).
(§2) The discs were washed with buffer containing, per liter, 25 mmol of 3-(N-morpholino)-2-hydroxypropane sulfonic acid MOPSO, 100 mmol of NaCl, 1 g of Brij® 35 and 1 g of tetrasodium EDTA, pH 7.4. Two 15 μL drops of a mixture of 100 μL of whole canine blood containing 950 eosinophils per μL (normal range: 100-1500 eosinophils per μL), 0.5%-25% v/v of heartworm extract in fetal bovine serum and 25 μL of 100 μg/mL of chicken anti-heartworm HRP-conjugated antibody was added to the glass fiber disc and allowed to incubate for 5 minutes at 23C. The discs were washed with a buffered bland protein solution containing 1% Triton X-100 and transferred to polystyrene microwells.
(§3) A peroxidase substrate containing 100 μmol per liter of sodium azide, was added to the discs and allowed to incubate for 10 minutes, after which time the amount of blue color produced was measured by bichromatic absorbance at 650 nm-562 nm, compensating the background contribution from the glass fiber matrix. Duplicate discs were also processed in an identical manner except these were incubated instead with the peroxidase substrate but lacking in azide.
The TMBlue® substrate was incubated with the glass fiber discs for 3 minutes and TMBM substrate was incubated for 15 minutes until bichromatic measurement at 650 mn-562 nm.

[2] = Method: Above pH 6 the activity of some peroxidase substrates declines. […] Incubation times longer than 30 minutes have not been very useful in peroxidase-based analysis due to substrate evaporation and gradual inactivation of peroxidase by peroxide, which occurs naturally after a limited number of catalytic cycles.
[3] = even down to pH 3; cited from earlier work
[4] = test system: endogenous canine peroxidase; conditions: 100 μmol per liter sodium azide, whole canine blood, 10 minutes
Method: as §1, §2, §3

MPO = MPO (Homo sapiens, UniProt P05164)
Method: (§4) Assays were run to determine the selectivity of azide for interference from EPO, MPO and hemoglobin. Activities were measured in solution using a peroxidase substrate consisting of, per liter, 1.4 mmol of TMB, 0.3 mmol of hydrogen peroxide, 20 mmol of sodium chloride, 30 mg of Triton X-100, and 100 g of sucrose. HRP was a conjugate of chicken antibody (used in Example 1). MPO and EPO were essentially homogeneous commercial preparations isolated from human leukocytes. Hemoglobin (Hgb) was obtained as a Triton X-100 lysate of feline erythrocytes.

EPO = EPO (Homo sapiens, UniProt P11678)
Method: as §4

Hemoglobin (Hgb) = Hemoglobin (Hgb) (Felis catus, UniProt P07405+P07412)
Method: as §4

HRP [5] = molecular target: T1, HRP
Method: as §4

[6] = TMBM substrate, 15 minutes, heartworm antigen 0%
[7] = TMBM substrate, 15 minutes, heartworm antigen 5%
[8] = TMBM substrate, 15 minutes, heartworm antigen 10%
[9] = TMBM substrate, 15 minutes, heartworm antigen 25%
[10] = TMBM substrate, 15 minutes, heartworm antigen 50%
[11] = TMBM substrate, 15 minutes, heartworm antigen 100%
[12] = TMBlue substrate, 3 minutes, heartworm antigen 0%
[13] = TMBlue substrate, 3 minutes, heartworm antigen 5%
[14] = TMBlue substrate, 3 minutes, heartworm antigen 10%
[15] = TMBlue substrate, 3 minutes, heartworm antigen 25%
[16] = TMBlue substrate, 3 minutes, heartworm antigen 50%
[17] = TMBlue substrate, 3 minutes, heartworm antigen 100%

T1 sequence (P00433 31-338): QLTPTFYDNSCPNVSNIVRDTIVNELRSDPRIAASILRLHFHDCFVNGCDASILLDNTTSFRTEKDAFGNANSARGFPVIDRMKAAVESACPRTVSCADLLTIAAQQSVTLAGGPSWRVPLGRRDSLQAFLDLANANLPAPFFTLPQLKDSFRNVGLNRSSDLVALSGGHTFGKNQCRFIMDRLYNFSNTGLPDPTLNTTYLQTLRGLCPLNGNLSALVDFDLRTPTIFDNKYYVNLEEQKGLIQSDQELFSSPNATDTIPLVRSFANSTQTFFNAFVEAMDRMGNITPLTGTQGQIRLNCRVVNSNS
Sequence of EPO (P11678 251-715 limits assumed): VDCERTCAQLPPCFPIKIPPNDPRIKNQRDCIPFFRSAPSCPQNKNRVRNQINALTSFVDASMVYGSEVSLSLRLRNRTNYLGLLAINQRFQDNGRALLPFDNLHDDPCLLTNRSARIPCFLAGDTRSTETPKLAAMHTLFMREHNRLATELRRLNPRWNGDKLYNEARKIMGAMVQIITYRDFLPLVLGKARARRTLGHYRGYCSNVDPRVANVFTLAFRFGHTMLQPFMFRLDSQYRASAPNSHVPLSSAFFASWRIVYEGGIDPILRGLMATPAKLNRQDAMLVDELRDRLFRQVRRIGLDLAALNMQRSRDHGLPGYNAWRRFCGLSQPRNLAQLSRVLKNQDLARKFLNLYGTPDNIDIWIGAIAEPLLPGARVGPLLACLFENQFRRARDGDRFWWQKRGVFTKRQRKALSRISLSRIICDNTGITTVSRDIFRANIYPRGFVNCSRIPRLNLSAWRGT
Sequence of EPO (P11678 140-250 limits assumed): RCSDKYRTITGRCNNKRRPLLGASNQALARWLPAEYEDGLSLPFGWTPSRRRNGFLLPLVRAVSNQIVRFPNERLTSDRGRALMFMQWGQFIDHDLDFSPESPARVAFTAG
Sequence of MPO (P05164 279-745 limits assumed): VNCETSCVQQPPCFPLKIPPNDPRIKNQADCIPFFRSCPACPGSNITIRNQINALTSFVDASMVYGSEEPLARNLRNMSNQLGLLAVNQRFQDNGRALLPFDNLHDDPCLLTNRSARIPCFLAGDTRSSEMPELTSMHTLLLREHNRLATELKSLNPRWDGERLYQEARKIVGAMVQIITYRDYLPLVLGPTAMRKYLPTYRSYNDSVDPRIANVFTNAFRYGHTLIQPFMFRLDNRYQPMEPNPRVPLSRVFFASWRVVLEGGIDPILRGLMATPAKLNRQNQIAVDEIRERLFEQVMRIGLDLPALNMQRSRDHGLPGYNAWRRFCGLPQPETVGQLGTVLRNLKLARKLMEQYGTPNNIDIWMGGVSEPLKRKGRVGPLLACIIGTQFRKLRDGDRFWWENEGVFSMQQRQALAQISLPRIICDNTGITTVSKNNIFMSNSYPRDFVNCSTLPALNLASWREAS
Sequence of MPO (P05164 165-273 limits assumed): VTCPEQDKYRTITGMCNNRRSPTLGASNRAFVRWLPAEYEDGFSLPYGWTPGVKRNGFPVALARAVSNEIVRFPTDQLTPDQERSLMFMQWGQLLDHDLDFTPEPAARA
Sequence of Hemoglobin (Hgb) (P07405 whole entry): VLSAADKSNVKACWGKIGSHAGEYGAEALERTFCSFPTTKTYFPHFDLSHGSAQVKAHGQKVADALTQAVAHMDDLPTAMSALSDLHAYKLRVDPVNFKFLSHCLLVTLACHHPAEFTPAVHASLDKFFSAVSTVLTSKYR
Sequence of Hemoglobin (Hgb) (P07412 whole entry): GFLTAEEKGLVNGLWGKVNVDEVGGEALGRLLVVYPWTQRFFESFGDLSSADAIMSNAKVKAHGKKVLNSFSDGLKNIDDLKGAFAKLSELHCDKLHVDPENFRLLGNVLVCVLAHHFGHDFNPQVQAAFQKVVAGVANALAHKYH

[N-]=[N+]=[N-].[Na+] [azide, sodium azide]
effect on assay sensitivity (HRP [1]; 500 μM azide): the decrease in sensitivity is not severe | 50 μM azide (mA) (HRP [1]; [6]): 46 mA | 50 μM azide (mA) (HRP [1]; [7]): 138 mA | 50 μM azide (mA) (HRP [1]; [8]): 196 mA | 50 μM azide (mA) (HRP [1]; [9]): 264 mA | 50 μM azide (mA) (HRP [1]; [10]): 535 mA | 50 μM azide (mA) (HRP [1]; [11]): 776 mA | 100 μM azide (mA) (HRP [1]; [6]): 73 mA | 100 μM azide (mA) (HRP [1]; [7]): 123 mA | 100 μM azide (mA) (HRP [1]; [8]): 197 mA | 100 μM azide (mA) (HRP [1]; [9]): 324 mA | 100 μM azide (mA) (HRP [1]; [10]): 511 mA | 100 μM azide (mA) (HRP [1]; [11]): 800 mA | 500 μM Azide (mA) (HRP [1]; TMBM substrate, 15 minutes, 500 μM azide, heartworm antigen 0%): 37 mA | 500 μM Azide (mA) (HRP [1]; TMBM substrate, 15 minutes, 500 μM azide, heartworm antigen 5%): 70 mA | 500 μM Azide (mA) (HRP [1]; TMBM substrate, 15 minutes, 500 μM azide, heartworm antigen 10%): 112 mA | 500 μM Azide (mA) (HRP [1]; TMBM substrate, 15 minutes, 500 μM azide, heartworm antigen 25%): 173 mA | 500 μM Azide (mA) (HRP [1]; TMBM substrate, 15 minutes, 500 μM azide, heartworm antigen 50%): 363 mA | 500 μM Azide (mA) (HRP [1]; TMBM substrate, 15 minutes, 500 μM azide, heartworm antigen 100%): 491 mA | 50 μM azide (mA) (HRP [1]; [12]): 22 mA | 50 μM azide (mA) (HRP [1]; [13]): 64 mA | 50 μM azide (mA) (HRP [1]; [14]): 119 mA | 50 μM azide (mA) (HRP [1]; [15]): 270 mA | 50 μM azide (mA) (HRP [1]; [16]): 408 mA | 50 μM azide (mA) (HRP [1]; [17]): 646 mA | 100 μM azide (mA) (HRP [1]; [12]): 31 mA | 100 μM azide (mA) (HRP [1]; [13]): 110 mA | 100 μM azide (mA) (HRP [1]; [14]): 150 mA | 100 μM azide (mA) (HRP [1]; [15]): 395 mA | 100 μM azide (mA) (HRP [1]; [16]): 628 mA | 100 μM azide (mA) (HRP [1]; [17]): 1046 mA | 500 μM Azide (mA) (HRP [1]; TMBlue substrate, 3 minutes, 500 μM azide, heartworm antigen 0%): 21 mA | 500 μM Azide (mA) (HRP [1]; TMBlue substrate, 3 minutes, 500 μM azide, heartworm antigen 5%): 73 mA | 500 μM Azide (mA) (HRP [1]; TMBlue substrate, 3 minutes, 500 μM azide, heartworm antigen 10%): 121 mA | 500 μM Azide (mA) (HRP [1]; TMBlue substrate, 3 minutes, 500 μM azide, heartworm antigen 25%): 265 mA | 500 μM Azide (mA) (HRP [1]; TMBlue substrate, 3 minutes, 500 μM azide, heartworm antigen 50%): 462 mA | 500 μM Azide (mA) (HRP [1]; TMBlue substrate, 3 minutes, 500 μM azide, heartworm antigen 100%): 734 mA | effect on assay sensitivity (HRP [1]; up to 100 μM azide): does not produce a significant diminution of assay sensitivity | fraction of azide that evaporates ([2]; microwell, 100 μL of 5 mM azide in succinate buffer, below pH 4.5, less than a half hour): One-half to two-thirds | fraction of azide lost ([2]; microwell, 100 μL of 5 mM azide in succinate buffer, pH 5.0): one-third | loss of azide ([2]; pH 5.5 and above, over a half hour): no significant loss | loss of azide from closed containers [3]: no azide is lost | azide added mA650-562 ([4]; antigen 0%): 118 mA | azide added mA650-562 ([4]; antigen 0.5%): 97 mA | azide added mA650-562 ([4]; antigen 1%): 123 mA | azide added mA650-562 ([4]; antigen 2.5%): 147 mA | azide added mA650-562 ([4]; antigen 5%): 149 mA | azide added mA650-562 ([4]; antigen 10%): 179 mA | azide added mA650-562 ([4]; antigen 25%): 305 mA | % of control activity (without azide), MPO (MPO; 3 μM azide): 63.1% | % of control activity (without azide), MPO (MPO; 30 μM azide): 15.5% | % of control activity (without azide), EPO (EPO; 3 μM azide): 13.4% | % of control activity (without azide), EPO (EPO; 30 μM azide): 0.7% | % of control activity (without azide), Hgb (Hemoglobin (Hgb); 3 μM azide): 99.7% | % of control activity (without azide), Hgb (Hemoglobin (Hgb); 30 μM azide): 26.4% | % of control activity (without azide), HRP (HRP [5]; 3 μM azide): 101% | % of control activity (without azide), HRP (HRP [5]; 30 μM azide): 83.5%
